pEC50: −log10 of the molar value. Like-named read-outs stand apart in the source and are kept apart here.
Columns and labels:
[1] = tested on: T. brucei bloodstream form; assay: Initial screen, T. brucei bloodstream form, Alamar Blue; type: cell-based, Trypanosoma brucei brucei; details: for activity at 2 µM / inhibition of growth at 2 µM: Trypanosoma brucei; for initial hit against T. brucei: growth reduced by ≥50%; for inhibition of growth at 2 µM: read-out: initial hit T.b
Method in brief: (§1)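 Bloodstream-form T. evansi Antat 3/3 and T. brucei Lister 427 were grown in HMI-11 with 10% FBS at 37 °C. Parasites were plated at 1×10^5 cells/mL with compound at 1 μM (T. evansi) or 2 μM (T. brucei) for 48 h, and growth was read by Alamar Blue relative to 1% DMSO controls (n = 6).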

[2] = tested on: T. evansi bloodstream form; assay: Initial screen, T. evansi bloodstream form, Alamar Blue; type: cell-based, Trypanosoma evansi; details: for activity at 1 µM / inhibition of growth at 1 µM: Trypanosoma evansi; for inhibition of growth at 1 µM: read-out: initial hit T.e
Method in brief: as §1

[3] = tested on: L. donovani axenic amastigotes; assay: Concentration-response EC50, L. donovani axenic amastigotes; type: cell-based; details: Leishmania donovani
Excerpt: The four lanosterone-like sterols derived from the Noble Fir Abies procera (700022, 700107, 700136) and the Grand Fir Abies grandis (700240) were the only initial compounds taken forward for L. mexicana due to their nanomolar activity and apparent low cytotoxicity (Figure 3a). […] Understanding the impact of the ring-opened lactone head group in this compound compared to the other three warrants further analysis in exploring their structure-activity relationships. These four sterols were also tested for growth inhibitory activity against L. donovani axenic amastigotes. […] As Leishmania spp. amastigotes typically reside with macrophages, further cytotoxicity assays with these sterols were performed against an activated monocyte cell line (THP-1) (Figure 4b).

T. brucei = assay: Concentration-response EC50, T. brucei; type: cell-based, Trypanosoma brucei brucei; details: 48 h
Excerpt: (§2) Initial hits from the parasite panel screen were taken forward in log concentration versus normalised response assays to estimate the half maximal effective concentration (EC50) in hit species as well as the half maximal cytotoxic concentrations (CC50) in the human hepatoma cell line HepG2 as a preliminary test for selectivity. Using CC50/EC50 to define the selectivity index (SI), the selectivity for each compound in a defined species compared to a human cell line was estimated and compared to the EC50 (Figure 3).
(§3) EC50 values were determined by serial two-fold dilution of each compound in 96 well plates. Culture conditions and viability assays were as stated for the initial screen, with some exceptions. L. mexicana and L. donovani axenic amastigotes were seeded at 2 × 10^6 cell/s mL, T. brucei and T. evansi were seeded at 2 × 10^5 cells/mL. For cytotoxicity studies, HepG2 cells were seeded at 1 × 10^5 cells/mL, incubated for 48 h and viability was assessed using the Alamar Blue assay [66, 67]. […] Normalised growth and viability data (compared to untreated controls) were plotted against Log10 concentration to estimate EC50 in GraphPad (Prism v6).

P. falciparum 3D7 = assay: Concentration-response EC50, P. falciparum 3D7; type: cell-based; details: Plasmodium falciparum
Excerpt: This is not surprising as the rate of kill is a result of the mechanism of cell death and, given their structural similarity, these three bisobolane sesquiterpene glycosides likely share the same target(s), albeit with some differences in affinity. The rate of kill, relatively, falls between that of atovaquone and dihydroartemisinin and is more similar to that of chloroquine.

T. evansi = assay: Concentration-response EC50, T. evansi; type: cell-based; details: Trypanosoma evansi, 48 h, read-out: T. evansi EC50
Excerpt: as §2, §3

P. falciparum Dd2Luc = assay: Concentration-response EC50, P. falciparum Dd2Luc; type: cell-based, Plasmodium falciparum; details: 48 h
Excerpt: as §2, §3

[4] = mean % growth compared to a normalised control with same concentration of DMSO solvent, initial screen, read-out: % growth T. b. brucei
[5] = mean % growth compared to a normalised control with same concentration of DMSO solvent, initial screen, read-out: % growth T. evansi
[6] = Trypanosoma brucei, read-out: T. brucei EC50, bloodstream form, 48 h
[7] = 3D7, read-out: P. falciparum 3D7 EC50
[8] = Plasmodium falciparum, read-out: P. falciparum Dd2Luc EC50, intraerythrocytic, 48 h
[9] = initial screen, compared to a normalised control with same concentration of DMSO solvent
[10] = read-out: mean % growth, T. b. brucei, initial screen, compared to a normalised control with same concentration of DMSO solvent
[11] = read-out: mean % growth, T. evansi, initial screen, compared to a normalised control with same concentration of DMSO solvent

Structure (SMILES)	activity at 2 µM [1, 4] [%]	activity at 1 µM [2, 5] [%]	pEC50 [3]	pEC50 (T. brucei; [6])	initial hit against T. brucei ([1]; 2 μM)	inhibition of growth at 2 µM [1] [%]	inhibition of growth at 1 µM [2] [%]	pEC50 (P. falciparum 3D7; [7])	pEC50 (T. evansi)	pEC50 (P. falciparum Dd2Luc; [8])	other results
CC1=CC(O)(CC(C)C2(C)CC=C3C4=CCC5C(C)(C)C(O)CCC5(C)C4CCC32C)OC1=O (stereo not shown) [Compound 700022]	53.5	70.8	6.85								
CC1OC(OC2C(OC(=O)C3CC[C@@H]4[C@H](C3)OC3(CC(OC(=O)/C=C/c5ccccc5)[C@@H](C)CO3)C43CO3)OC(CO)C(O)C2O)C(O)C(O)C1O (stereo partly shown) [Compound 700042]				6.39	initial hits	> 50	> 50	6.72	6.21	6.55	activity at 2 µM ([1]; read-out: % growth T. b. brucei, mean % growth compared to a normalised control with same concentration of DMSO solvent, initial screen): 1.6%; activity at 1 µM ([2]; read-out: % growth T. evansi, mean % growth compared to a normalised control with same concentration of DMSO solvent, initial screen): 40.2%
CC1=CC(O)(CC(C)C2(C)CCC3C4=CCC5C(C)(CCC(O)C5(C)C)C4=CCC32C)OC1=O (stereo not shown) [Compound 700107]	85.2	66.5	6.59								
CC1=CC(O)(CC(C)C2(C)CC=C3C4=CCC5C(C)(C)C(=O)CCC5(C)C4CCC32C)OC1=O (stereo not shown) [Compound 700136]	104	76.2	6.80								
C/C(=C/C(=O)CC(C)C1CCC2(C)C3=CCC4C(C)(C)C(=O)CCC4(C)C3CCC12C)C(=O)O (stereo not shown) [Compound 700240]	72.9	120	6.47								
C=C1C(=O)OC2CC(C)C3C=CC(=O)C3(C)C(OC(C)=O)C12 (stereo not shown) [Compound 701155]					initial hits		> 50	5.54	6.87	5.80	pEC50 (T. brucei; read-out: T. brucei EC50, bloodstream form): 6.82; mean % growth, T. b. brucei [1, 9]: -0.8%; mean % growth, T. evansi [2, 9]: 1.0%
C=C1C(=O)OC2CC(C)C3C=CC(=O)C3(C)C(OC(=O)C(C)C)C12 (stereo not shown) [Compound 701157]				6.54	initial hits	> 50	> 50	5.68	6.72	5.74	activity at 2 µM [1, 10]: -1.8%; activity at 1 µM [2, 11]: -4.3%
C=C1C(=O)OC2CC(C)C3C=CC(=O)C3(C)C(OC(=O)C(C)CC)C12 (stereo not shown) [Compound 701158]				6.51	initial hits	> 50	> 50	5.82	6.61	~6.00	activity at 2 µM [1, 10]: -1.3%; activity at 1 µM [2, 11]: 0.454%; pEC50 (P. falciparum Dd2Luc; read-out: P. falciparum Dd2Luc EC50, intraerythrocytic): 5.80
C=C1C(=O)OC2CC(C)C3C(OC)CC(=O)C3(C)C(OC(=O)C(C)CC)C12 (stereo not shown) [Compound 701159]					initial hits					5.35	pEC50 (T. brucei; Trypanosoma brucei, bloodstream form, read-out: T. brucei EC50): 6.41; activity at 2 µM ([1]; initial screen, compared to a normalised control with same concentration of DMSO solvent, read-out: mean % growth, T. b. brucei): 13.7%; inhibition of growth at 2 µM ([1]; 2 μM, x = initial hit): > 50%; activity at 1 µM ([2]; initial screen, compared to a normalised control with same concentration of DMSO solvent, read-out: mean % growth, T. evansi): 82%; pEC50 (P. falciparum 3D7; 3D7, intraerythrocytic, read-out: P. falciparum 3D7 EC50): 5.34

From PMC7998250, “Temperate Zone Plant Natural Products—A Novel Resource for Activity against Tropical Parasitic Diseases” (Pharmaceuticals, 2021)
